The source of these data is US8785483B2, “Methods for treating COPD” (The Board of Regents of the University of Texas System, priority 2010, dated 2014).

One assay deals with JAK1. The assay is described as follows: Western blot of JAK1 phosphorylation in airway epithelial monolayer. It counts as cell-based, human. As to the method:
FIG. 7. AR inhibition prevents IL-13-induced phosphorylation of JAK-1, ERK1/2 and STAT-6 in airway epithelial monolayer. The ciliated monolayer of airway cells at ALI was treated with AR inhibitor for 24 h and stimulated with IL-13 for different time periods as indicated. At the end of incubation, cells were lysed and cell lysate was subjected to western blotting using antibodies against phosphorylated and nonphosphorylated JAK-1, ERK1/2 and STAT-6 to analyze the activation of these signaling proteins. A representative blot is shown (n=4). #p<0.001 vs Control; *p<0.01 and **p<0.001 vs IL-13. For air-liquid interface (ALI) culture, SAEC were seeded at 8.5×10^4 cells/12-mm-diameter PET transparent insert with […] pores (12-well millicell culture insert; Millipore) and pre-coated with rat tail collagen type-1 (Sigma-Aldrich). The cells were grown submerged in the differentiation medium as described earlier by Zhen et al. (Am J Respir Cell Mol Biol 36: 244-253, 2007). […] Protein levels were determined using Bradford reagent (Biorad, Hercules, Calif.). […] The blots were then washed, exposed to HRP-conjugated secondary antibodies (1:5,000 dilution) for 1 h, and the antigen-antibody complex was detected by enhanced chemiluminescence (Amersham Pharmacia Biotech, Piscataway, N.J., USA). […]

The subject of assay [1] is goblet cell metaplasia in mice lungs. The assay is described as follows: RWE-induced goblet cell metaplasia in mice lungs (PAS stain). It counts as in vivo. The note with it: RWE-sensitized and challenged mice, fidarestat 7 mg/kg body wt/day in drinking water, 72 h after challenge. As to the method:
FIGS. 10A-10B. Inhibition or deficiency of AR prevents RWE-induced goblet cell metaplasia in mice lungs. RWE-sensitized normal and AR-null mice were challenged with RWE and 72 h later the lungs were harvested from mice treated without or with AR inhibitor (A) or AR-null mice (B), perfused and fixed with 4% paraformaldehyde and embedded in paraffin. The sections were stained with PAS stain and observed under light microscope and photomicrographs were acquired. A representative photomicrograph from each group is shown (n=4). Magnification 200× (A); 400× (B).
Wild type C57BL/6 and Balb/cJ mice were purchased from Harlan Sprague-Dawley (San Diego, Calif., USA) and AR null mice on C57BL/6 background were bread by us at Animal resource center, UTMB, Galveston, Tex. Six-eight weeks old female mice were sensitized with RWE as previously described (Hwang et al., FASEB J. 19: 795-797, 2005). Briefly, mice were sensitized with two intraperitoneal administrations of 100 μl of endotoxin-free RWE (150 μg) combined with Alum adjuvant (1 mg) in a 3:1 ratio (v/v), on days 0 and 4. On day 11, mice (n=6) were challenged intranasally with RWE (100 μg). A parallel group of mice received fidarestat (7 mg/kg body wt/day) in drinking water from one day before the challenge. Control groups of mice were challenged with equivalent volumes of PBS. […]

`NC(=O)[C@@H]1C[C@]2(NC(=O)NC2=O)c2cc(F)ccc2O1` [fidarestat, (2S,4S)-2-aminoformyl-6-fluoro-spiro[chroman-4,4′-imidazolidine]-2′,5′-dione]: the “IL-13-induced phosphorylation of JAK1” value with JAK1 (ALI monolayer, AR inhibitor 24 h prior to IL-13) is “decreased significantly”. For the same compound, in the assay on JAK1 (AR inhibitor alone, no IL-13), the “basal phosphorylation of JAK1” value is on record as “decreased”. In addition, the “PAS positive cells in the airway” value in assay [1] was “absent”.
